Our source for the IC50 values is patent US7932270B2 (Cytokinetics, Inc., priority 2006, dated 2011).

The target of this assay is T1, chicken gizzard smooth muscle myosin subfragment-1 chemically crosslinked to cardiac or skeletal actin (Gallus gallus, UniProt P10587).
T1 construct: chicken gizzard smooth muscle myosin subfragment-1; from tissue; host or cells: chicken gizzard
T1 sequence (P02607 2-151): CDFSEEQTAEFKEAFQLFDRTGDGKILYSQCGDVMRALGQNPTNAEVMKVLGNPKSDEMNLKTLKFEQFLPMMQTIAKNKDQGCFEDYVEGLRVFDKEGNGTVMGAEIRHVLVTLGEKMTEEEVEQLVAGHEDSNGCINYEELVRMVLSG
T1 sequence (P10587 84-789): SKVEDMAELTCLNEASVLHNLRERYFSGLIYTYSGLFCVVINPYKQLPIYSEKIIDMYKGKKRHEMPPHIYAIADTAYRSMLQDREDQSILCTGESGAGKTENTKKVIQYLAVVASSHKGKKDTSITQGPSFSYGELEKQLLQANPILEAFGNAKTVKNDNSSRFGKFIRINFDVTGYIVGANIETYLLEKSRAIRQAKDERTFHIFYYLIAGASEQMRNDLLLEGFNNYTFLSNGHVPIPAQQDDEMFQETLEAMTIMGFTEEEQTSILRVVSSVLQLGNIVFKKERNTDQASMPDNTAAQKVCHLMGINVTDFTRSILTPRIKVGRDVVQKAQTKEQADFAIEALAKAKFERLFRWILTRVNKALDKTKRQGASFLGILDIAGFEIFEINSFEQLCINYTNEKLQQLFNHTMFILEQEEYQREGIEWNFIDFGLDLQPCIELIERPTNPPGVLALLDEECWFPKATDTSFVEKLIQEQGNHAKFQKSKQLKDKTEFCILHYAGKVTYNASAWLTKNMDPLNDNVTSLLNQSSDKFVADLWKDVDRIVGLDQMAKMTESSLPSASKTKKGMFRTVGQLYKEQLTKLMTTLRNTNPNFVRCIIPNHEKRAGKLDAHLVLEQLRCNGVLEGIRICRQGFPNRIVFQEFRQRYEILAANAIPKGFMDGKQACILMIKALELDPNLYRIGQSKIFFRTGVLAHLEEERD
Kind of assay: Smooth muscle myosin ATPase dose response assay (pyruvate kinase/horseradish peroxidase/pyruvate oxidase-coupled, amplex red fluorescence). Type of assay: biochemical. To be noted: read-out: IC50 Arithmetic Mean. As for the experimental part:
In Vitro Model of Dose Dependent Smooth Muscle Myosin ATPase Modulation
Screening assays were performed using a pyruvate kinase and lactate dehydrogenase-coupled ATPase assay containing the following reagents: Potassium PIPES (50 mM), MgCl2 (3 mM), KCl (100 mM), ATP (0.15 mM), DTT (1 mM), BSA (0.1 mg/ml), NADH (0.5 mM), PEP (1.5 mM), pyruvate kinase (4 U/ml), lactate dehydrogenase (8 U/ml), and antifoam (50 ppm) (concentrations expressed are final assay concentrations). The pH was adjusted to 6.80 at 22° C. by addition of potassium hydroxide. Lead optimization assays were performed with a more sensitive pyruvate kinase/horseradish peroxidase/pyruvate oxidase-coupled ATPase assay containing the following reagents: Potassium PIPES (12 mM), MgCl2 (2 mM), KCl (100 mM), ATP (0.15 mM), BSA (0.05 mg/ml), potassium phosphate (2 mM), amplex red (0.1 mM), PEP (0.1 mM), pyruvate kinase (4 U/ml), horseradish peroxidase (0.5 U/ml), pyruvate oxidase (0.5 U/ml), and antifoam (50 ppm) (concentrations expressed are final assay concentrations). The pH was adjusted to 7.00 at 22° C. by addition of potassium hydroxide.
The protein components specific to this assay are chicken gizzard smooth muscle myosin subfragment-1 that has been chemically crosslinked to either cardiac or skeletal actin using an excess of 1-Ethyl-3-[3-dimethylaminopropyl]carbodiimide hydrochloride and N-hydroxysuccinimide. The exact concentration of the crosslinked smooth muscle myosin in the assay is determined empirically, by titration to achieve a desired rate of ATP hydrolysis. The concentration varies between protein preparations due to variations in the fraction of active molecules in each preparation.
Compound dose response assays are performed by first preparing a dilution series of test compound, each with an assay mixture containing potassium PIPES, MgCl2, KCl, ATP, BSA, potassium phosphate, amplex red, PEP, crosslinked smooth muscle actomyosin (subfragment-1), antifoam, and water. The assay is started by adding an equal volume of solution containing potassium Pipes, MgCl2, KCl, BSA, potassium phosphate, pyruvate kinase, horseradish peroxidase, pyruvate oxidase, antifoam, and water. ATP hydrolysis is monitored by measuring the fluorescence of amplex red (excitation at 480 nm, emission at 615 nm). The resulting dose response curve is fit by the 4 parameter equation y=Bottom+((Top-Bottom)/(1+((IC50/X)^Hill))). The IC50 is defined as the concentration at which ATPase activity is midway between the top and bottom of the dose response curve.
As to `Cn1cc(-c2nc(NCCc3cccc(F)c3)c(C(=O)NC[C@H]3CCCN3C(=O)CCNC(=O)OC(C)(C)C)cc2F)cn1` [N-[((2R)-1-{3-[(tert-butoxy)carbonylamino]propanoyl}pyrrolidin-2-yl)methyl](5-fluoro-2-{[2-(3-fluorophenyl)ethyl]amino}-6-(1-methylpyrazol-4-yl)(3-pyridyl))carboxamide], the IC50 came out at 0.505 µM.
With `N#Cc1ccccc1-c1ccc(C(=O)NCc2cccnc2Cl)c(NCCc2cccc(F)c2)n1` [N-[(2-chloro(3-pyridyl))methyl](6-(2-cyanophenyl)-2-{[2-(3-fluorophenyl)ethyl]amino}(3-pyridyl))carboxamide], the IC50 stood at 0.072 µM.
Under `NC(=O)c1ccccc1-c1ccc(C(=O)NCc2cccnc2)c(NCCc2cccc(F)c2)n1` [2-(6-{[2-(3-fluorophenyl)ethyl]amino}-5-[N-(3-pyridylmethyl)carbamoyl]-2-pyridyl)benzamide] stands 16.4 µM.
Under `Cn1cc(-c2nc(NCCc3cccc(F)c3)c(C(=O)NC[C@H]3CCCN3C(=O)OC(C)(C)C)cc2C#N)cn1` [tert-butyl (2R)-2-{[(5-cyano-2-{[2-(3-fluorophenyl)ethyl]amino}-6-(1-methylpyrazol-4-yl)(3-pyridyl))carbonylamino]methyl}pyrrolidinecarboxylate] stands 2.52 µM; under `CN(C)CCNC(=O)CNC(=O)c1ccc(-c2ccccc2C#N)nc1NCCc1cccc(F)c1` [N-[2-(dimethylamino)ethyl]-2-[(6-(2-cyanophenyl)-2-{[2-(3-fluorophenyl)ethyl]amino}(3-pyridyl))carbonylamino]acetamide], 9.31 µM; under `CC(C)(C)OC(=O)NCCCC(=O)N1CCC[C@@H]1CNC(=O)c1ccc(-c2ccccc2C#N)nc1NCCc1cccc(F)c1` [N-[((2R)-1-{4-[(tert-butoxy)carbonylamino]butanoyl}pyrrolidin-2-yl)methyl](6-(2-cyanophenyl)-2-{[2-(3-fluorophenyl)ethyl]amino}(3-pyridyl))carboxamide], 0.432 µM.
Under `N#Cc1ccccc1-c1ccc(C(=O)NC[C@H]2CCCN2C(=O)CCCCN)c(NCCc2cccc(F)c2)n1` [N-{[(2R)-1-(5-aminopentanoyl)pyrrolidin-2-yl]methyl}(6-(2-cyanophenyl)-2-{[2-(3-fluorophenyl)ethyl]amino}(3-pyridyl))carboxamide] stands 0.099 µM.
Regarding `N#Cc1ccccc1-c1ccc(C(=O)NC[C@H]2CCCN2C(=O)CCCO)c(NCCc2cccc(F)c2)n1` [N-{[(2R)-1-(4-hydroxybutanoyl)pyrrolidin-2-yl]methyl}(6-(2-cyanophenyl)-2-{[2-(3-fluorophenyl)ethyl]amino}(3-pyridyl))carboxamide], the IC50 amounted to 0.085 µM.
Consider `N#Cc1ccccc1-c1ccc(C(=O)NC[C@H]2CCN2C(=O)[C@@H](N)CCCN)c(NCCc2cccc(F)c2)n1` [N-{[(2R)-1-((2S)-2,5-diaminopentanoyl)azetidin-2-yl]methyl}(6-(2-cyanophenyl)-2-{[2-(3-fluorophenyl)ethyl]amino}(3-pyridyl))carboxamide], for which the IC50 was determined as 0.274 µM.
Under `NCc1ccc(CNC(=O)c2ccc(-c3ccccc3)nc2NCCc2cccc(F)c2)cn1` [N-{[6-(aminomethyl)(3-pyridyl)]methyl}(2-{[2-(3-fluorophenyl)ethyl]amino}-6-phenyl(3-pyridyl))carboxamide] stands 0.42 µM; under `COCCNC(=O)c1ccc(-c2ccccc2C#N)nc1NCCc1cccc(F)c1` [(6-(2-cyanophenyl)-2-{[2-(3-fluorophenyl)ethyl]amino}(3-pyridyl))-N-(2-methoxyethyl)carboxamide], 0.238 µM; under `N#Cc1ccccc1-c1ccc(C(=O)NC[C@@H](CN)NC(=O)CO)c(NCCc2cccc(F)c2)n1` [N-((1R)-2-amino-1-{[(6-(2-cyanophenyl)-2-{[2-(3-fluorophenyl)ethyl]amino}(3-pyridyl))carbonylamino]methyl}ethyl)-2-hydroxyacetamide], 10.6 µM.
Under `Cn1cc(-c2nc(NCCc3cccc(F)c3)c(C(=O)NCc3cccnc3)cc2F)cn1` [(5-fluoro-2-{[2-(3-fluorophenyl)ethyl]amino}-6-(1-methylpyrazol-4-yl)(3-pyridyl))-N-(3-pyridylmethyl)carboxamide] stands 0.012 µM; under `N#Cc1ccccc1-c1ccc(C(=O)NCC2CCN(C(=O)CN)C2)c(NCCc2cccc(F)c2)n1` (stereo not shown) [N-{[1-(2-aminoacetyl)pyrrolidin-3-yl]methyl}(6-(2-cyanophenyl)-2-{[2-(3-fluorophenyl)ethyl]amino}(3-pyridyl))carboxamide], 0.203 µM; under `Cc1cc(C)cc(-c2ccc(C(=O)NCc3cccnc3)c(NCCc3ccccn3)n2)c1` [{6-(3,5-dimethylphenyl)-2-[(2-(2-pyridyl)ethyl)amino](3-pyridyl)}-N-(3-pyridylmethyl)carboxamide], 10.1 µM.
Consider `NC(=O)CNC(=O)c1cc(F)c(-c2cn[nH]c2)nc1NCCc1cccc(F)c1` [N-(carbamoylmethyl)(5-fluoro-2-{[2-(3-fluorophenyl)ethyl]amino}-6-pyrazol-4-yl(3-pyridyl))carboxamide], for which the IC50 is 0.14 µM.
In the case of `CC[C@H](CNC(=O)c1cc(F)c(-c2cn[nH]c2)nc1NCCc1cccc(F)c1)C(=O)OC` [methyl (2R)-2-{[(5-fluoro-2-{[2-(3-fluorophenyl)ethyl]amino}-6-pyrazol-4-yl(3-pyridyl))carbonylamino]methyl}butanoate], the IC50 came out at 0.117 µM.
In the case of `C[C@H](CNC(=O)c1ccc(-c2ccccc2C#N)nc1NCCc1cccc(F)c1)N(C)C(=O)CCCNC(=O)OC(C)(C)C`, the IC50 was determined as 3.68 µM.
Under `CN(C)C(=O)CNC(=O)c1ccc(-c2ccccc2C#N)nc1NCCc1cccc(F)c1` [2-[(6-(2-cyanophenyl)-2-{[2-(3-fluorophenyl)ethyl]amino}(3-pyridyl))carbonylamino]-N,N-dimethylacetamide] stands 0.532 µM.
Consider `O=C1CC[C@H](CNC(=O)c2ccc(-c3cc[nH]n3)nc2NCCc2cccc(F)c2)N1` [N-[((2R)-5-oxopyrrolidin-2-yl)methyl](2-{[2-(3-fluorophenyl)ethyl]amino}-6-pyrazol-3-yl(3-pyridyl))carboxamide], for which the IC50 turned out to be 0.355 µM.
For the compound `O=C(NCc1cccnc1)c1cc2c(nc1NCCc1cccc(F)c1)-c1ccccc1C2=O` [(2-{[2-(3-fluorophenyl)ethyl]amino}-5-oxoindeno[3,2-b]pyridin-3-yl)-N-(3-pyridylmethyl)carboxamide], the IC50 is 0.088 µM.
Under `N#Cc1ccccc1-c1ccc(C(=O)NCc2cccnc2)c(NCCC2CCCO2)n1` (stereo not shown) [{6-(2-cyanophenyl)-2-[(2-oxolan-2-ylethyl)amino](3-pyridyl)}-N-(3-pyridylmethyl)carboxamide] stands 0.92 µM.
Turning to `CNCCNC(=O)c1ccc(-c2ccccc2C#N)nc1NCCc1cccc(F)c1` [(6-(2-cyanophenyl)-2-{[2-(3-fluorophenyl)ethyl]amino}(3-pyridyl))-N-[2-(methylamino)ethyl]carboxamide], the IC50 was 4.46 µM.
Under `O=C(NCc1cccnc1)c1ccc(-c2ccccc2)nc1NCC(O)c1cccc(F)c1` (stereo not shown) [(2-{[2-(3-fluorophenyl)-2-hydroxyethyl]amino}-6-phenyl(3-pyridyl))-N-(3-pyridylmethyl)carboxamide] stands 0.559 µM; under `C=CCNC(=O)c1ccc(-c2ccccc2)nc1NCCc1ccccc1` [{6-phenyl-2-[(2-phenylethyl)amino](3-pyridyl)}-N-prop-2-enylcarboxamide], 1.06 µM.
